Experimental data taken from patent US8975415B2, “Chromane compounds” (CoMentis, Inc., priority 2012, dated 2015).
Values belong to the compound of their own block, whether it stands above or below them.

What was measured:
Aβ42 = assay: Brain Aβ reduction in rats (Aβ42 ELISA); type: in vivo, Sprague-Dawley rats; settings: rat, oral
Description: Effects on brain Aβ reduction in rats were determined with reference to the method described in the WO2012/054510. […] Concretely, the test was conducted with the method as below.
Test compounds were prepared in a vehicle of 35% HPβCD in H2O. The test compound was formulated the same day as oral dosing. Doses (see [Table. 1]) were based on the free base equivalent. Sonication was used where required to facilitate the formulation.
Male Sprague-Dawley rats (150-300 grams) were obtained from Charles River Japan (Atsugi, Japan) and were given approximately 4 days of acclimation. Food and water was made available ad libitum throughout the study. Animals were visually inspected for health before being included into the study group, and were randomly assigned to the treatment and control groups to achieve similar group mean body weights. The dosing solution (dose volume 5 mL/kg) was administered directly into the stomach using a rodent gavage needle. Control animals received oral administration of equivalent volume of the vehicle.
At a time post-dose (e.g., 3 hours; see [Table. 1]), animals were euthanized with isoflurane. […] Plasma was separated using centrifugation at 15,000 rpm (20,400×g) for 5 minutes at 4° C. and subsequently stored at −80° C. After blood sampling, CSF (cerebrospinal fluid) was carefully withdrawn from the cisterna magna using a 29 gauge needle after a quick dissection to expose the atlantooccipital membrane. The CSF samples were centrifuged at 15,000 rpm (20,400×g) for 5 minutes to confirm free of blood contamination and stored at −80° C. Immediately after decapitation, the hippocampus were isolated on ice, and quickly frozen in liquid nitrogen and stored at −80° C.
Fragments of the hippocampus were weighed while frozen. A 10-fold volume (w:v) of TBS (Tris-buffered saline) supplemented with a Complete Mini protease inhibitor tablet (catalog number: 11 836 153 001, Roche Diagnostics, In, USA) was added. The hippocampus were homogenized using sonication on ice in microcentrifuge tube. Resulting homogenates were centrifuged at 100,000×g for 1 hour in a refrigerated centrifuge at 4° C. Supernatants were collected as soluble fraction.
Each concentration of Aβ42 was divided by the mean concentration of Aβ42 of vehicle-treated group, and these ratios were converted to percentages.

hERG potassium channel = hERG potassium channel (Homo sapiens (Human), UniProt Q12809); assay: hERG inhibition, automated planar patch-clamp in hERG-expressing CHO cells; settings: read-out: Test Example 5 hERG IC50; whole-cell patch clamp, room temperature
BACE1 [1] = molecular target: T1, BACE1 (Homo sapiens (Human), UniProt P56817); assay: Measurement of Aβ production inhibition in cell (SK-N-BE(2) neuroblastoma cells, Aβ40 ELISA); settings: Test Example 3 IC50, Aβ40 production, SK-N-BE(2) cells, 6 hours
Target sequence in this assay (P56817 46-501): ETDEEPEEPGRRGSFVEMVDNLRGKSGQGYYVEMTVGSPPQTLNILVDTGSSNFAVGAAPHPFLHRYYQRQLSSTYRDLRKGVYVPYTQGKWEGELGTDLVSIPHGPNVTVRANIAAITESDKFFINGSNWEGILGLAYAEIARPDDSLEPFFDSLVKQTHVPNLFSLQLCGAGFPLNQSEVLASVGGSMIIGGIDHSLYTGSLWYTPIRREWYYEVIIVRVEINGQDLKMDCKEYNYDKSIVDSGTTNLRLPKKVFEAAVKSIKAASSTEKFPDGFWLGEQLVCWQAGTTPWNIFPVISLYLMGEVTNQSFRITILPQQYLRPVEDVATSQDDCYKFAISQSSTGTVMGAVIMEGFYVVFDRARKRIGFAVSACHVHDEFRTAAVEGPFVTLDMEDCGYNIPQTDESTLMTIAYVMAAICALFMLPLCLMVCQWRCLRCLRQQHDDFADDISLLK

BACE1 [2] = molecular target: T1, BACE1; assay: Measurement of BACE1 inhibition by fluorescence resonance energy transfer (FRET), MCA substrate; settings: FRET
Target sequence in this assay (P56817 75-416): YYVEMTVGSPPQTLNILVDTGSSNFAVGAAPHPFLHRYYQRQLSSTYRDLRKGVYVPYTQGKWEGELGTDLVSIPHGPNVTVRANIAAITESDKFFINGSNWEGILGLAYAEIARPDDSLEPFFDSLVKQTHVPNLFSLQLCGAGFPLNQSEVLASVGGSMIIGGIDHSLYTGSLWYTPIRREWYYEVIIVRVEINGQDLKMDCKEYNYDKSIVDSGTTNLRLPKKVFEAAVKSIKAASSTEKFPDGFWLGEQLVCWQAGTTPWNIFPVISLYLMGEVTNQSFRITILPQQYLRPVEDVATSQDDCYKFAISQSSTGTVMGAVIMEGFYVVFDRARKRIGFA

BACE1 [3] = molecular target: T1, BACE1; assay: Measurement of BACE1 inhibition by time resolved fluorescence resonance energy transfer (TR-FRET); type: biochemical; settings: Eu-CEVNLDAEFK-QSY 7 substrate, read-out: Test Example 2 IC50
Target sequence in this assay (P56817 75-416): as above

Sequence of hERG potassium channel (Q12809 whole entry): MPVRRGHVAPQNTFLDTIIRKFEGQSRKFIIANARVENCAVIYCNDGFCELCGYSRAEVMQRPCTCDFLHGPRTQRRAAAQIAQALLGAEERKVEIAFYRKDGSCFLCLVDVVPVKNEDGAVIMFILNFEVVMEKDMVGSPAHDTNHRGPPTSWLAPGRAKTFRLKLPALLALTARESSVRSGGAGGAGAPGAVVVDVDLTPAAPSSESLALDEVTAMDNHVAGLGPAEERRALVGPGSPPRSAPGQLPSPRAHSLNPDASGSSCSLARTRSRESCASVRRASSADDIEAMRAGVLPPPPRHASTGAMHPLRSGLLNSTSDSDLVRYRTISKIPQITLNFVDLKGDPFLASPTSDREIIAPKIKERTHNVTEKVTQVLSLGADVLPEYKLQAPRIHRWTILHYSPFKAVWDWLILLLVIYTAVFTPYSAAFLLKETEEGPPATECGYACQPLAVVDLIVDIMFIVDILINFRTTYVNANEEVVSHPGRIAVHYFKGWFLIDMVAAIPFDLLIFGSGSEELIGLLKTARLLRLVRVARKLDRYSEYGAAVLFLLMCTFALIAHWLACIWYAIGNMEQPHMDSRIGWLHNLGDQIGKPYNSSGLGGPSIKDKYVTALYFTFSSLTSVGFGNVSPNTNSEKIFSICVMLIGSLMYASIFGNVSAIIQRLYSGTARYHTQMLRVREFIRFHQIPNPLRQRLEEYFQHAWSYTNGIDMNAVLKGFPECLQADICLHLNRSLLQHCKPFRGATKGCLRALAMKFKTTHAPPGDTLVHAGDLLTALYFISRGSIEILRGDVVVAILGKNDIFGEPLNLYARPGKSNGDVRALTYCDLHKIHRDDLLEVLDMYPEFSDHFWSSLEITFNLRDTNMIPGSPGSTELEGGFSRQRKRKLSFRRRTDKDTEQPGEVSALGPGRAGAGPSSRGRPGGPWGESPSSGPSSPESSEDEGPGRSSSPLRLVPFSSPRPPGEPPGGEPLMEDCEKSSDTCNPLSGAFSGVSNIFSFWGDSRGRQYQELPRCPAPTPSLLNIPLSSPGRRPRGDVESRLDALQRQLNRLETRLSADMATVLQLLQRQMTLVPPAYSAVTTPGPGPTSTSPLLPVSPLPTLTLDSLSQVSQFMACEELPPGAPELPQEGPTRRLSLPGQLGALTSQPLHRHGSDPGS

melting point: 254 °C
SMILES: CC1(C)Oc2ccc(NC(=O)c3cnc(C(F)F)cn3)cc2[C@@]2(COC(N)=N2)C12CC2.Cl

melting point: 165 °C
SMILES: CC1(C)Oc2ccc(NC(=O)c3ccc(Cl)cn3)cc2[C@@]2(COC(N)=N2)C12COC2 (hydrate or solvate) [Example 218, N-[(4S)-2-amino-2′,2′-dimethyldispiro[1,3-oxazole-4,4′-chromene-3′,3″-oxetan]-6′-yl]-5-chloropyridine-2-carboxamide]

SMILES: CC1(C)Oc2ccc(NC(=O)c3ccc(Cl)cn3)cc2[C@@]2(COC(N)=N2)C12COC2 [Example 218, N-[(4S)-2-amino-2′,2′-dimethyldispiro[1,3-oxazole-4,4′-chromene-3′,3″-oxetan]-6′-yl]-5-chloropyridine-2-carboxamide]
Test Example 4 Aβ42 reduction (%) (Aβ42; 3 mg/kg, 2.5 hours): 24%
Test Example 4 Aβ42 reduction (%) (Aβ42; 10 mg/kg, 2.5 hours): 31%

SMILES: COc1cnc(C(=O)Nc2ccc3c(c2)[C@@]2(COC(N)=N2)C2(COC2)C(C)(C)O3)cn1 [Example 220]
IC50 (hERG potassium channel): > 10 µM
Test Example 4 Aβ42 reduction (%) (Aβ42; 3 mg/kg, 1.5 hours): 21%
Test Example 4 Aβ42 reduction (%) (Aβ42; 10 mg/kg, 1.5 hours): 27%

SMILES: CC1(C)Oc2ccc(NC(=O)c3ccc(Cl)cn3)cc2[C@@]2(COC(N)=N2)C12CC2 [Example 221]
IC50 (BACE1 [1]): 0.16 nM
Ki (BACE1 [2]; read-out: Test Example 1 BACE1 MCA Ki, MCA substrate): 37.8 nM
IC50 (BACE1 [2]; read-out: Test Example 1 IC50, MCA-SEVNLDAEFK(DNP)-NH2 substrate, pH 4.4): 81.8 nM
Test Example 4 Aβ42 reduction (%) (Aβ42; 1 mg/kg, 3 hours): 24%
Test Example 4 Aβ42 reduction (%) (Aβ42; 3 mg/kg, 3 hours): 42%

SMILES: COc1cnc(C(=O)Nc2ccc3c(c2)[C@@]2(COC(N)=N2)C2(CC2)C(C)(C)O3)cn1 [Example 223, N-[(4′R)-2″-amino-2′,2′-dimethyldispiro[cyclopropane-1,3′-chromene-4′,4″-[1,3]oxazol]-6′-yl]-5-methoxypyrazine-2-carboxamide]
Test Example 4 Aβ42 reduction (%) (Aβ42; 1 mg/kg, 3 hours): 19%
Test Example 4 Aβ42 reduction (%) (Aβ42; 3 mg/kg, 3 hours): 34%

SMILES: CC1(C)Oc2ccc(NC(=O)c3cnc(C(F)F)cn3)cc2[C@@]2(COC(N)=N2)C12CC2 [Example 224, N-[(4′R)-2″-amino-2′,2′-dimethyldispiro[cyclopropane-1,3′-chromene-4′,4″-[1,3]oxazol]-6′-yl]-5-(difluoromethyl)pyrazine-2-carboxamide]
IC50 (hERG potassium channel): 15.1 µM
Test Example 4 Aβ42 reduction (%) (Aβ42; 1 mg/kg, 3 hours): 21%
Test Example 4 Aβ42 reduction (%) (Aβ42; 3 mg/kg, 3 hours): 35%

melting point: 191 °C
SMILES: COc1cnc(C(=O)Nc2ccc3c(c2)[C@@]2(COC(N)=N2)C2(CC2)C(C)(C)O3)cn1 [Example 230, N-[(4′R)-2″-amino-2′,2′-dimethyldispiro[cyclopropane-1,3′-chromene-4′,4″-[1,3]oxazol]-6′-yl]-5-methoxypyrazine-2-carboxamide]

IC50 (BACE1 [3]): 135 µM
SMILES: Cc1cn2ccc(-c3ccc4c(c3)C3(COC(N)=N3)C3(COC3)C3(CCC3)O4)cc2n1 (stereo not shown) [RP 66]
IC50 (hERG potassium channel): > 10 µM

IC50 (BACE1 [3]): 96.5 µM
SMILES: Cc1cn2cc(-c3ccc4c(c3)C3(COC(N)=N3)C3(COC3)C3(CCC3)O4)ccc2n1 (stereo not shown) [RP 67]
IC50 (hERG potassium channel): > 10 µM

SMILES: NC1=NC2(CO1)c1cc(-c3cc(Cl)cnc3F)ccc1OCC21CC1 (stereo not shown) [RP 104]
IC50 (BACE1 [3]): 1.13 µM
IC50 (hERG potassium channel): 3.25 µM

SMILES: CC1(C)Oc2ccc(-c3cc(Cl)cnc3F)cc2C2(COC(N)=N2)C12COC2 (stereo not shown) [RP 154]
IC50 (BACE1 [1]): 32 nM
IC50 (BACE1 [3]): 0.313 µM
IC50 (hERG potassium channel): > 1 µM

IC50 (BACE1 [3]): 4.95 µM
SMILES: NC1=NC2(CO1)c1cc(-c3cncc4ccccc34)ccc1OC1(CCC1)C21COC1 (stereo not shown) [RP 210]
IC50 (hERG potassium channel): 3.7 µM

SMILES: Cn1cc2cc(-c3ccc4c(c3)C3(COC(N)=N3)C3(CC3)CO4)ccc2n1 (stereo not shown) [RP 213]
IC50 (BACE1 [3]): 39.6 µM
IC50 (hERG potassium channel): > 10 µM
